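Method: 48-hour compound exposure of cells in 96-well plates, five concentrations, linear interpolation of endpoints. The concentration for 50% growth inhibition is given as GI50.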 The source made the active and inactive calls. Rule as the data show it: active = GI50 up to about 1.1 µM and inactive = higher.
Assays:
Test in all cases: DTP human tumour cell line panel, 48 h
[1] = system: U-251
[2] = system: A498
[3] = system: UACC-62
[4] = system: HT-29
[5] = system: KM12
[6] = system: SK-MEL-5
[7] = system: SF-268
[8] = system: COLO 205
[9] = system: HCC 2998
[10] = system: SF-295
[11] = system: LOX IMVI
[12] = system: 786-0
[13] = system: M19-MEL
[14] = system: HCT-116
[15] = system: SF-539
[16] = system: SN12C
[17] = system: OVCAR-8
[18] = system: NCI-H226
[19] = system: ACHN
[20] = system: KM-20L2
[21] = system: Malme-3M
[22] = system: NCI-H23
[23] = system: HOP-18
[24] = system: IGROV-1
[25] = system: EKVX
[26] = system: LXFL 529
[27] = system: UACC-257
[28] = system: NCI-H522
[29] = system: RXF 631
[30] = system: SNB-75
[31] = system: NCI-H460
[32] = system: CAKI-1
[33] = system: XF498
[34] = system: SR
[35] = system: HOP-92
[36] = system: DMS-273
[37] = system: M14
[38] = system: CCRF-CEM
[39] = system: OVCAR-4
[40] = system: SK-MEL-28
[41] = system: SW-620
[42] = system: K562
[43] = system: SNB-78
[44] = system: HL-60
[45] = system: A549
[46] = system: DMS-114
[47] = system: RXF 393
[48] = system: OVCAR-3
[49] = system: DLD-1
[50] = system: HOP-62
[51] = system: OVCAR-5
[52] = system: SNB-19
[53] = system: TK-10
[54] = system: MOLT-4
[55] = system: UO-31
[56] = system: HCT-15
[57] = system: SK-OV-3
[58] = system: SK-MEL-2
[59] = system: RPMI-8226

Cc1ccc(C)c(NC(=O)CCc2n[nH]c(=S)o2)c1
GI50 [1]: > 100 µM (inactive) | GI50 [2]: > 100 µM (inactive) | GI50 [3]: > 100 µM (inactive) | GI50 [4]: > 100 µM (inactive) | GI50 [5]: > 100 µM (inactive) | GI50 [6]: > 100 µM (inactive) | GI50 [7]: > 100 µM (inactive) | GI50 [8]: > 100 µM (inactive) | GI50 [9]: > 100 µM (inactive) | GI50 [10]: > 100 µM (inactive) | GI50 [11]: > 100 µM (inactive) | GI50 [12]: > 100 µM (inactive) | GI50 [13]: > 100 µM (inactive) | GI50 [14]: > 100 µM (inactive) | GI50 [15]: > 100 µM (inactive) | GI50 [16]: > 100 µM (inactive) | GI50 [17]: > 100 µM (inactive) | GI50 [18]: > 100 µM (inactive) | GI50 [19]: > 100 µM (inactive) | GI50 [20]: > 100 µM (inactive) | GI50 [21]: > 100 µM (inactive) | GI50 [22]: > 100 µM (inactive) | GI50 [23]: > 100 µM (inactive) | GI50 [24]: > 100 µM (inactive) | GI50 [25]: > 100 µM (inactive) | GI50 [26]: > 100 µM (inactive) | GI50 [27]: > 100 µM (inactive) | GI50 [28]: > 100 µM (inactive) | GI50 [29]: > 100 µM (inactive) | GI50 [30]: > 100 µM (inactive) | GI50 [31]: > 100 µM (inactive) | GI50 [32]: > 100 µM (inactive) | GI50 [33]: > 100 µM (inactive) | GI50 [34]: > 100 µM (inactive) | GI50 [35]: > 100 µM (inactive) | GI50 [36]: > 100 µM (inactive) | GI50 [37]: > 100 µM (inactive) | GI50 [38]: > 100 µM (inactive) | GI50 [39]: > 100 µM (inactive) | GI50 [40]: > 100 µM (inactive) | GI50 [41]: > 100 µM (inactive) | GI50 [42]: > 100 µM (inactive) | GI50 [43]: > 100 µM (inactive) | GI50 [44]: > 100 µM (inactive) | GI50 [45]: > 100 µM (inactive) | GI50 [46]: > 100 µM (inactive) | GI50 [47]: > 100 µM (inactive) | GI50 [48]: > 100 µM (inactive) | GI50 [49]: > 100 µM (inactive) | GI50 [50]: > 100 µM (inactive) | GI50 [51]: > 100 µM (inactive) | GI50 [52]: > 100 µM (inactive) | GI50 [53]: > 100 µM (inactive) | GI50 [54]: > 100 µM (inactive) | GI50 [55]: > 100 µM (inactive) | GI50 [56]: > 100 µM

Cn1cnc([N+](=O)[O-])c1Sc1nccn1-c1cccc2ccccc12
GI50 [1]: 26.2 µM (inactive) | GI50 [2]: 32.7 µM (inactive) | GI50 [3]: 16.4 µM (inactive) | GI50 [4]: 23.9 µM (inactive) | GI50 [5]: 35.7 µM (inactive) | GI50 [6]: 29.2 µM (inactive) | GI50 [7]: 24.8 µM (inactive) | GI50 [8]: 16.7 µM (inactive) | GI50 [9]: 45.5 µM (inactive) | GI50 [10]: 48.4 µM (inactive) | GI50 [11]: 13.6 µM (inactive) | GI50 [12]: 48.1 µM (inactive) | GI50 [13]: 25.7 µM (inactive) | GI50 [14]: 19.7 µM (inactive) | GI50 [15]: 25.4 µM (inactive) | GI50 [16]: 31.7 µM (inactive) | GI50 [17]: 20.8 µM (inactive) | GI50 [57]: 31.8 µM (inactive) | GI50 [18]: 18.2 µM (inactive) | GI50 [19]: 26.4 µM (inactive) | GI50 [20]: 64.1 µM (inactive) | GI50 [21]: 13.7 µM (inactive) | GI50 [22]: 23 µM (inactive) | GI50 [23]: 2.52 µM (inactive) | GI50 [24]: 26.7 µM (inactive) | GI50 [25]: 26.9 µM (inactive) | GI50 [26]: 18.5 µM (inactive) | GI50 [27]: 27.3 µM (inactive) | GI50 [28]: 8.69 µM (inactive) | GI50 [29]: 22.3 µM (inactive) | GI50 [30]: 29.9 µM (inactive) | GI50 [31]: 25.7 µM (inactive) | GI50 [32]: 30.9 µM (inactive) | GI50 [33]: 16.6 µM (inactive) | GI50 [34]: 15.8 µM (inactive) | GI50 [58]: 14.1 µM (inactive) | GI50 [35]: 15.3 µM (inactive) | GI50 [36]: 25.2 µM (inactive) | GI50 [37]: 18.8 µM (inactive) | GI50 [59]: 15.8 µM (inactive) | GI50 [38]: 19.5 µM (inactive) | GI50 [39]: 24 µM (inactive) | GI50 [40]: 22.5 µM (inactive) | GI50 [41]: 26.2 µM (inactive) | GI50 [42]: 19.8 µM (inactive) | GI50 [43]: 24.7 µM (inactive) | GI50 [45]: 35 µM (inactive) | GI50 [46]: 22 µM (inactive) | GI50 [48]: 22.9 µM (inactive) | GI50 [49]: 24.2 µM (inactive) | GI50 [50]: > 100 µM (inactive) | GI50 [51]: 23.2 µM (inactive) | GI50 [52]: 94 µM (inactive) | GI50 [53]: 22 µM (inactive) | GI50 [54]: 12.9 µM (inactive) | GI50 [55]: 16.7 µM (inactive)

Source: ChEMBL document CHEMBL1201862, “PubChem BioAssay data set” (2004)
